{"source": "patent US9351983B2", "about": "“Use of glycerophosphoinositols for the treatment of septic shock” (CONSIGLIO NAZIONALE DELLE RICERCHE, priority 2012, dated 2016)", "key": {"[1]": {"system": "LPS-stimulated nuclear translocation of NF-κB", "test": "Electromobility shift assay of nuclear NF-κB in LPS-stimulated monocytes", "format": "cell-based, human", "details": "50 μM, 0.1 μg/ml LPS for 1 h", "procedure": "FIG. 7—Glycerophosphoinositols inhibit LPS-stimulated nuclear translocation of NF-κB. Human monocytes purified from the peripheral blood of healthy donors were incubated at 37° C. for 20 min without (−) or with (+) two different concentrations (300 μM and 50 μM) of GroPIns or GroPIns4P, and then for further 1 h in the absence (−) and presence (+) of 0.1 μg/ml LPS from E. coli. At the end of the incubation, the cells were lysed and the nuclear extracts were incubated with radiolabelled oligonucleotide probes that contained the NF-κB binding site. Protein-DNA complexes were separated using 6% non-denaturating acrylamide gels and visualised by autoradiography. The results shown are representative of 4 different experiments performed with cells from different donors.\nCells were harvested by centrifugation at 300×g for 5 min and lysed in ice-cold cell lysis buffer using an Ultraturrax homogeniser (Janke & Kunke, Germany, 4 strokes of 20 s each, at medium speed). The cell nuclei were pelleted by centrifugation (800×g, 5 min, at 4° C.) and recovered. […] After centrifugation (4000×g, for 10 min, at 4° C.), the supernatant was recovered and the protein concentrations in the nuclear extracts were determined using a commercially available protein assay kit (Bio-Rad Laboratories, UK). […]"}, "[2]": {"system": "LPS-activated tissue-factor (TF) activity in human monocytes", "test": "Pro-coagulant activity of tissue factor (one-stage clotting time) in LPS-stimulated human monocytes", "format": "cell-based", "details": "for time at which inhibition of LPS-mediated TF activity is evident: 0.1 μg/ml LPS, 5 h versus 24 h (FIG. 2); for tissue-factor activity (pro-coagulant activity, one-stage clotting time): 50 μM to 300 μM, then 0.1 μg/ml LPS for 5 h and 24 h (FIG. 2)", "procedure": "FIG. 2—The glycerophosphoinositols inhibit LPS-activated tissue-factor activity in human monocytes. Human monocytes were purified from peripheral blood of healthy donors and incubated at 37° C. for 20 min without or with different concentrations (from 50 μM to 300 μM) GroPIns or GroPIns4P, and for a further 5 h and 24 h in the absence and in presence of 0.1 μg/ml LPS from E. coli. […] Data are means (±SD) of three independent experiments performed with cells from different donors. Asterisks indicate statistically significant differences (*p=0.015; **p<0.005; ***p=0.0003) versus their respective controls. As shown, pro-coagulant activity was not detectable in untreated monocytes, and it was induced in a time-dependent manner by LPS stimulation.\nThe glycerophosphoinositol, differently from the PLA2IVα inhibitor, inhibits LPS-activated tissue-factor activity in human monocytes. Human monocytes were purified from peripheral blood of two healthy donors (experiment I and II) and pre-incubated at 37° C. for 20 min without (black line) or with 300 μM glycerophosphoinositol (GroPIns, blue line) or 0.5 μM PLA2IVα inhibitor (pyrrophenone, Pf, red line), and for a further 24 h in the absence or presence of increasing concentrations of LPS from E. coli (endotoxin).\nThe glycerophosphoinositol inhibits in a dose-dependent manner LPS-activated tissue-factor activity in human monocytes. Human monocytes were purified from peripheral blood of three healthy donors (experiments III, IV and V) and pre-incubated at 37° C. for 20 min without or with increasing concentrations of glycerophosphoinositol (GroPIns) and for a further 24 h in the absence or presence of 10 ng/ml of LPS from E. coli (endotoxin). […] The two insets in Exp IV and V show the pro-coagulant activity of tissue factor, assessed in cells stimulated by 10 ng/ml of endotoxin, with (filled bars) or without (dotted bars) 20 min pre-incubation at 37° C., in absence (Control) or in presence of 300 μM GroPIns.\nThe glycerophosphoinositols inhibit LPS-activated tissue-factor activity in human monocytes.\nHuman monocytes were obtained from whole blood collected from healthy donors (informed consent was obtained) and anticoagulated with 0.1 vol 3.8% sodium citrate/0.15 mol/l NaCl. The leukocytes were sedimented at 180×g for 15 min at 10° C. The sedimented cells were diluted to the initial volume with citrate-saline and sedimented again. This step was repeated to minimise platelet contamination. The cells were then layered onto Lymphoprep™, and centrifuged at 700×g for 20 min at 20° C. The ring of mononuclear cells was collected and sedimented at 620×g for 7 min at 8° C. The pellet was resuspended in citrate-saline and the cells were washed twice. Monocytes were purified using a discontinuous Percoll™ density gradient; the mononuclear cell preparation was resuspended in RPMI-1640 medium supplemented with 10% heat-inactivated foetal calf serum, and was layered onto a 46% isosmotic Percoll™ solution. After centrifugation at 20° C. for 30 min at 550×g, the cells at the RPMI-1640 medium/Percoll™ interface were collected and sedimented at 620×g. The pellet was resuspended in citrate-saline and the cells were washed twice. The final monocyte preparation was then resuspended in serum-free RPMI-1640 at the concentration required.\nThe pro-coagulant activity of tissue factor (TF activity) was measured in cell lysates according to one-stage clotting time [as reported in (Evangelista et al., Thromb Haemost. 2005; 94, 568-577)]. One hundred μl of cell lysates were added to 100 μl of 37° C. prewarmed normal human plasma. After 30 s, 100 μl 20 mM CaCl2 were added to the mixture and the clotting time was determined using a KC4A Amellung Coagulometer (Mascia Brunelli, Milan, Italy). The data were then converted in arbitrary units by interpolation with a standard curve generated with serial dilutions of human recombinant thromboplastin (Hemoliance, Instrumentation Laboratory)."}, "[3]": {"details": "300 μM, endotoxin 10 ng/ml for 24 h (FIG. 12)"}}, "data": [{"compound": "O=P(O)(O)OC1[C@@H](O)[C@H](O)C(OP(=O)(O)OCC(O)CO)[C@@H](O)[C@H]1O", "note": "(some centres unmarked) [GroPIns4P, glycerophosphoinositol 4-phosphate]", "values": [{"measurement": "reduction of NF-κB nuclear translocation", "setting": "[1]", "result": "not at 50 μM"}, {"measurement": "time at which inhibition of LPS-mediated TF activity is evident", "setting": "[2]", "result": "already effective at shorter times (5 h)"}, {"measurement": "tissue-factor activity (pro-coagulant activity, one-stage clotting time)", "setting": "[2]; 20 min pre-incubation", "result": "dose-dependent reduction in tissue-factor activity"}, {"measurement": "TF activity", "setting": "[2]; [3]", "result": "reduce TF activity"}, {"measurement": "efficacy in reducing TF activity compared with GroPIns", "setting": "[2]; [3]", "result": "higher efficacy than GroPIns"}]}, {"compound": "O=P(O)(OCC(O)CO)OC1C(O)C(O)C(O)C(O)C1O", "note": "(centres unmarked) [GroPIns, glycerophosphoinositol]", "values": [{"measurement": "reduction of NF-κB nuclear translocation", "setting": "[1]", "result": "not at 50 μM"}, {"measurement": "time at which inhibition of LPS-mediated TF activity is evident", "setting": "[2]", "result": "mainly evident at long times (24 h)"}, {"measurement": "tissue-factor activity (pro-coagulant activity, one-stage clotting time)", "setting": "[2]; 20 min pre-incubation", "result": "dose-dependent reduction in tissue-factor activity"}, {"measurement": "TF activity", "setting": "[2]; 300 μM, 20 min pre-incubation, increasing concentrations of endotoxin for 24 h (FIG. 10)", "result": "reduces TF activity"}, {"measurement": "TF activity", "setting": "[2]; [3]", "result": "reduce TF activity"}, {"measurement": "TF activity", "setting": "[2]; increasing concentrations of compound, endotoxin 10 ng/ml for 24 h (FIG. 11)", "result": "dose-dependently reduces TF activity"}]}]}
